Assay results as given in patent publication US20050171094A1, “Pyrrolopyrimidine derivatives” (priority 2002, published 2005).
Like-named read-outs stand apart in the source and are kept apart here.

Target: recombinant human GSK-3β (Homo sapiens, UniProt P49841)
Assay: Determination of inhibition of GSK-3 enzyme activity
Format: biochemical
Settings: read-out: GSK-3 enzyme-inhibiting activity (IC50 value)
Description: Determination of Inhibition of GSK-3 Enzyme Activity
To five μl of a test compound in 5% DMSO as a solvent, 25 μl of phospho-glycogen synthase peptide-2 substrate solution [6 μm phospho-glycogen synthase peptide-2, 20 μm ATP, 16 mM MOPS buffer, pH 7.0, 0.2 mM EDTA, 20 mM magnesium acetate, 0.1 μl [γ-^33P]ATP (specific activity: about 110 TBq/mmol)] was added, and 20 μl of a GSK-3β enzyme solution [10 mU recombinant human GSK-3β, 20 mM MOPS buffer, pH 7.0, 1 mM EDTA, 0.1% polyoxyethylenelauryl ether (23 Lauryl Ether; Brij 35), 5% glycerol, 0.1% β-mercaptoethanol] was further added to initiate the reaction. After reacting at room temperature for 20 minutes, an equal amount of 200 mM phosphate solution was added to stop the reaction. 90 μl of the reaction product was allowed to adsorb to the MultiScreen PH plate (Millipore), and washed with 100 mM phosphate solution. After drying said plate, 30 μl of MicroScint-O (Packard Bioscience) was added, and cpm was measured by a scintilation counter to examine the inhibition activity. As used herein, Phospho GS Peptide 2 means […]P)-Glu-Asp-Glu-Glu-Glu (SEQ ID NO: 1).

recombinant human GSK-3β, sequence (P49841 whole entry): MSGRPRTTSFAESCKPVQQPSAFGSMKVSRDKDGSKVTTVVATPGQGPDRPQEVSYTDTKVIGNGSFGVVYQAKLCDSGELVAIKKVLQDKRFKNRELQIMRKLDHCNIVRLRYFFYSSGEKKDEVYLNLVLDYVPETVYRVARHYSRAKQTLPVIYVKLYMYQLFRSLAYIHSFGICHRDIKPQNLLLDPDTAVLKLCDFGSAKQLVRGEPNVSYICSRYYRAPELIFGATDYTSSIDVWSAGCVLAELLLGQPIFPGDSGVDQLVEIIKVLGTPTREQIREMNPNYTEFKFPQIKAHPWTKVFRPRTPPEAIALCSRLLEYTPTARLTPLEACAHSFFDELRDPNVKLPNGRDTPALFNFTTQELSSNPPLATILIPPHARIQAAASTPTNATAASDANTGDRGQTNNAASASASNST

| Structure (SMILES) | IC50 (IC50 class given in μM) [µM] | IC50 (phospho-glycogen synthase peptide-2 substrate, [γ-33P]ATP, IC50 class printed in nM) [µM] |
| --- | --- | --- |
| N#Cc1c2n(c3c(=S)[nH]cnc13)CCN(S(=O)(=O)c1ccccc1)CC2 [Compound No. 410, 8-(phenylsulfonyl)-4-thioxo-3-hydro-6H,7H,9H,10H-1,4-diazaperhydroepino[1′,7′-5,1]pyrrolo[3,2-d]pyrimidine-11-carbonitrile] | 1 to 10 |  |
| N#Cc1c2n(c3c(=S)[nH]cnc13)CCN(Cc1ccccc1)c1ccccc1-2 [Compound No. 1799, 5-benzyl-9-thioxo-10-hydro-6H,7H-benzo[f]pyrimidino[5′,4′-2,3]pyrrolo[1,5-d]1,4-diazepine-13-carbonitrile] | 1 to 10 |  |

The next lines start with the values.

| IC50 (IC50 class given in μM) [µM] | IC50 (phospho-glycogen synthase peptide-2 substrate, [γ-33P]ATP, IC50 class printed in nM) [µM] | Structure (SMILES) |
| --- | --- | --- |
| 1 to 10 |  | Cc1ccc(C(=O)N2CCc3c(C#N)c4nc[nH]c(=O)c4n3CC2)cc1 [Compound No. 50, 8-[(4-methylphenyl)carbonyl]4-oxo-3-hydro-6H,7H,9H,10H-1,4-diazaperhydroepino[1′,7′-5,1]pyrrolo[3,2-d]pyrimidine-11-carbonitrile] |
| 1 to 10 |  | Cc1ccc(NC(=O)N2CCc3c(C#N)c4nc[nH]c(=O)c4n3CC2)cc1 [Compound No. 161, (11-cyano-4-oxo(3-hydro-6H,7H,9H,10H-1,4-diazaperhydroepino[4′,5′-1,5]pyrrolo[3,2-d]pyrimidine-8-yl))-N-(4-methylphenyl)carboxamide] |
|  | < 0.05 | N#Cc1c2n(c3c(=S)[nH]cnc13)CCN(C(=O)Nc1cccc(C(=O)O)c1)CC2 [Compound No. 792, 3-[(11-cyano-4-thioxo-3-hydro-6H,7H,9H,10H-1,4-diazaperhydroepino[4′,5′-1,5]pyrrolo[3,2-d]pyrimidine-8-yl)carbonylamino]benzoic Acid] |
